The values that follow come from patent publication US20150306165A1, “PLANT EXTRACT COMPOSITION FOR INHIBITING ADIPOCYTES, REDUCING BODY FAT, PROMOTING WEIGHT LOSS AND INCREASING LIPID METABOLISM AS WELL AS APPLICATION THEREOF” (CALIWAY BIOMEDICAL CO., LTD., priority 2014, published 2015).

SMILES strings stand for the structures. Marks after values point to notes of the source that are not given here.

Assay [1] is described as follows: Animal assay (I): high fat diet rats, weight gain and body fat. The assay is classed as in vivo, Sprague-Dawley (SD) male rats. The conditions noted are these: positive control group. As for the experimental part: Sprague-Dawley (SD) male rats were used in this example. There were six groups for test, respectively as a normal group, an obese group, a positive control group (Orlistat®, 18.6 mg/kg BW), a low-dose experimental group (the formulation LB004: 223.2 mg/kg BW), a medium-dose experimental group (the formulation LB004: 446.4 mg/kg BW), and a high-dose experimental group (the formulation LB004: 892.8 mg/kg BW). Ten male rats were used in each group. During the 8-week experiment period, high fat diets were fed ad libitum for all groups except […]. Three formulation LB004 doses of the present invention were orally given simultaneously during the experiment and body weight loss and lipid mass reduction were evaluated. Bodyweight, food and water intake were recorded weekly. In the end of the test, total amount of fat and the percentage of fat dry weight were determined.
In the end of the experiment, the rats were sacrificed. Epididymis fat, perinephric fat, and mesenteric fat were weighted and the total amount of internal fat was calculated. In addition, the fat of groin and the extraperitoneal fat were weighted to calculate the amount of subcutaneous fat.
In addition, the wet weights of rat bodies were weighed. Then the rat bodies were dried in an oven at 105° C. to constant dry weight for measuring dry weights of the rat bodies. The rat bodies were pulverized by uniform homogenizer. The percentage of dry weight and the amount of crude fat of whole animals is calculated by diethyl ether extraction at 2 to 3 different sampling points.

Assay [2] can be described thus: Animal assay (IV): high fat diet mice, 8 weeks, weight gain and fat. The format is in vivo, B6 strain male mice. As for the experimental part:
B6 strain male mice were used in this example. There were five groups for test, respectively as the obese group, the resveratrol (61.5 mg/kg BW), the green tea extract (123 mg/kg BW), and experimental groups such as the formulation LB001 (338.25 mg/kg BW) and the formulation LB0008 (326 mg/kg BW). Five male animals were used in each group. During the test, high fat diets and experimental substrates were fed for all groups to induce obesity during eight weeks. In the experimental duration, weight and the average daily intake were recorded. In the end of the experiment, the mice were sacrificed to weight epididymis fat, perinephric fat, and mesenteric fat and calculate the total amount of visceral fat; groin fat and extra-abdominal fat were weighed to calculate the amount of subcutaneous fat.

As for `CCCCCCCCCCC[C@@H](C[C@@H]1OC(=O)[C@H]1CCCCCC)OC(=O)[C@H](CC(C)C)NC=O` [Orlistat®, Orlistat], in assay [1] (18.6 mg/kg B.W., 8 weeks), the “fat (dry weight)” value is on record as 31.6 ± 6.0^a %, the total fat mass is listed as 38.1 ± 8.8^c g and the total weight gain is recorded as 240.1 ± 24.4^c g. In assay [1] (18.6 mg/kg BW), the “body fat decrease compared with the obese group” value is on record as 23.9%, the “body weight decline compared with the obese group” value was found to be 12.0% and the “decrease of percentage of fat dry weight compared with the obese group” value came to 17.4%.
In the case of `Oc1ccc(C=Cc2cc(O)cc(O)c2)cc1` [resveratrol], the “visceral fat, subcutaneous fat, and total fat mass compared with the obese group” value in assay [2] (resveratrol 61.5 mg/kg BW, FIG. 10) is listed as “no statistical difference”. Moreover, the “inhibitory effect on weight gain” value in assay [2] (resveratrol alone 61.5 mg/kg BW, FIG. 9) is “poor and had no statistical difference from the obese group”.
